From ChEMBL document CHEMBL5212743, “Selectivity Literature for EUbOPEN Chemogenomics Library wave 3” (2023) come the findings set out here.

One assay deals with D(2) dopamine receptor (Homo sapiens, UniProt P14416). Kind of assay: Selectivity interaction (GPCR panel (PDSP screen)) EUB0000728a DRD2. The following applies: at 10 µM.
Assay [1] has as its target Calcium/calmodulin-dependent protein kinase type 1B (Homo sapiens, UniProt Q6P2M8). Briefly: Selectivity interaction (KinomeScan (DiscoverX)) EUB0000728a PNCK. The following applies: at 1 µM.
In a further assay the target is Collagenase 3 (Homo sapiens, UniProt P45452). Kind of assay: Selectivity interaction (Lead profiling screen (Eurofins, enzymes, transporters, GPCRs, ion chanels)) EUB0000728a MMP13.
The next assay concerns the target Stromelysin-2 (Homo sapiens, UniProt P09238). Briefly: Selectivity interaction (Lead profiling screen (Eurofins, enzymes, transporters, GPCRs, ion chanels)) EUB0000728a MMP10.
Assay [2] deals with Matrix metalloproteinase-14 (Homo sapiens, UniProt P50281). Kind of assay: Selectivity interaction (Lead profiling screen (Eurofins, enzymes, transporters, GPCRs, ion chanels)) EUB0000728a MMP14.
Assay [3] addresses Matrix metalloproteinase-16 (Homo sapiens, UniProt P51512). Briefly: Selectivity interaction (Lead profiling screen (Eurofins, enzymes, transporters, GPCRs, ion chanels)) EUB0000728a MMP16.
In assay [4] the target is 72 kDa type IV collagenase (Homo sapiens, UniProt P08253). Kind of assay: Selectivity interaction (Lead profiling screen (Eurofins, enzymes, transporters, GPCRs, ion chanels)) EUB0000728a MMP2.
For the next assay, the target named is Stromelysin-1 (Homo sapiens, UniProt P08254). Kind of assay: Selectivity interaction (Lead profiling screen (Eurofins, enzymes, transporters, GPCRs, ion chanels)) EUB0000728a MMP3.
A further assay concerns the target T1, Matrilysin (Homo sapiens, UniProt P09237).
T1 sequence (P09237 whole entry): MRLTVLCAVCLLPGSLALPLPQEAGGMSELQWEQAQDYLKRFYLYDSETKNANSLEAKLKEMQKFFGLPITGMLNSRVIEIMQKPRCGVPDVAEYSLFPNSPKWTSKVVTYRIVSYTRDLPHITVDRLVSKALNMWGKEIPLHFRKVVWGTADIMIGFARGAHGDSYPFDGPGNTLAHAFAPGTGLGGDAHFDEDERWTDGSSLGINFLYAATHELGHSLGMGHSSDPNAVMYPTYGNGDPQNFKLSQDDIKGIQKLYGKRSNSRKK
Briefly: Selectivity interaction (Lead profiling screen (Eurofins, enzymes, transporters, GPCRs, ion chanels)) EUB0000728a MMP7.

The target in the next assay is Neutrophil collagenase (Homo sapiens, UniProt P22894). Briefly: Selectivity interaction (Lead profiling screen (Eurofins, enzymes, transporters, GPCRs, ion chanels)) EUB0000728a MMP8.
Assay [5] deals with Matrix metalloproteinase-9 (Homo sapiens, UniProt P14780). Kind of assay: Selectivity interaction (Lead profiling screen (Eurofins, enzymes, transporters, GPCRs, ion chanels)) EUB0000728a MMP9.
The target in assay [6] is Epidermal growth factor receptor (Homo sapiens, UniProt P00533). Kind of assay: Selectivity interaction (KinomeScan (DiscoverX)) EUB0000728a EGFR. The following applies: at 1 µM.
For assay [7], the target named is Non-receptor tyrosine-protein kinase TYK2 (Homo sapiens, UniProt P29597). Briefly: Selectivity interaction (KinomeScan (DiscoverX)) EUB0000728a TYK2. The following applies: at 1 µM.
For assay [8], the target named is T2, Gamma-aminobutyric acid receptor subunit alpha-1 (Homo sapiens, UniProt P14867).
T2 sequence (P14867 whole entry): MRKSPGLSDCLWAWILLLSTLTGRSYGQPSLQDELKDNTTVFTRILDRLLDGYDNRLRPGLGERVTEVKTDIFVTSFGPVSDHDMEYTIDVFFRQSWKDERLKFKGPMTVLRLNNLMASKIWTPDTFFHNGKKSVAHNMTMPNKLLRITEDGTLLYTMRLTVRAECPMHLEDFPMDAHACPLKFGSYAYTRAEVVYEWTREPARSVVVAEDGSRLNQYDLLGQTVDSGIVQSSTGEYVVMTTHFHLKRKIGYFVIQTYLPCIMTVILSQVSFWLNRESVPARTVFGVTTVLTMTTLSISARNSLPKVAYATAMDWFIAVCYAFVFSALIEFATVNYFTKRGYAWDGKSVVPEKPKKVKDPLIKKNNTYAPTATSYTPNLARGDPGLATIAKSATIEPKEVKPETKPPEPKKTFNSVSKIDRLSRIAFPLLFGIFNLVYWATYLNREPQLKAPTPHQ
Kind of assay: Selectivity interaction (GPCR panel (PDSP screen)) EUB0000302b GABRA1.

Assay [9] concerns the target Chymotrypsin-like elastase family member 1 (Homo sapiens, UniProt Q9UNI1). Briefly: Selectivity interaction (Serine protease panel) EUB0000735a CELA1.
A further assay addresses Chymase (Homo sapiens, UniProt P23946). Kind of assay: Selectivity interaction (Serine protease panel) EUB0000735a CMA1.
A further assay concerns the target Chymotrypsin-C (Homo sapiens, UniProt Q99895). Kind of assay: Selectivity interaction (Serine protease panel) EUB0000735a CTRC.
A further assay addresses Cathepsin G (Homo sapiens, UniProt P08311). Kind of assay: Selectivity interaction (Serine protease panel) EUB0000735a CTSG.
A further assay addresses Coagulation factor XI (Homo sapiens, UniProt P03951). Briefly: Selectivity interaction (Serine protease panel) EUB0000735a F11.
Another assay addresses Coagulation factor VII (Homo sapiens, UniProt P08709). Kind of assay: Selectivity interaction (Serine protease panel) EUB0000735a F7.
The target of another assay is Coagulation factor IX (Homo sapiens, UniProt P00740). Kind of assay: Selectivity interaction (Serine protease panel) EUB0000735a F9.
The target of a further assay is Kallikrein-1 (Homo sapiens, UniProt P06870). Briefly: Selectivity interaction (Serine protease panel) EUB0000735a KLK1.
For another assay, the target named is Kallikrein-12 (Homo sapiens, UniProt Q9UKR0). Briefly: Selectivity interaction (Serine protease panel) EUB0000735a KLK12.
The next assay addresses Kallikrein-4 (Homo sapiens, UniProt Q9Y5K2). Kind of assay: Selectivity interaction (Serine protease panel) EUB0000735a KLK4.
In a further assay the target is Kallikrein-5 (Homo sapiens, UniProt Q9Y337). Kind of assay: Selectivity interaction (Serine protease panel) EUB0000735a KLK5.
In another assay the target is Kallikrein-7 (Homo sapiens, UniProt P49862). Briefly: Selectivity interaction (Serine protease panel) EUB0000735a KLK7.
The target of another assay is Plasma kallikrein (Homo sapiens, UniProt P03952). Kind of assay: Selectivity interaction (Serine protease panel) EUB0000735a KLKB1.
A further assay addresses Plasminogen (Homo sapiens, UniProt P00747). Kind of assay: Selectivity interaction (Serine protease panel) EUB0000735a PLG.
The target in a further assay is Serine protease 1 (Homo sapiens, UniProt P07477). Briefly: Selectivity interaction (Serine protease panel) EUB0000735a PRSS1.
A further assay concerns the target Dipeptidyl peptidase 2 (Homo sapiens, UniProt Q9UHL4). Briefly: Selectivity interaction (Serine protease panel) EUB0000735a DPP7.
In a further assay the target is Dipeptidyl peptidase 4 (Homo sapiens, UniProt P27487). Briefly: Selectivity interaction (Serine protease panel) EUB0000735a DPP4.
The target of a further assay is Prolyl endopeptidase FAP (Homo sapiens, UniProt Q12884). Briefly: Selectivity interaction (Serine protease panel) EUB0000735a FAP.
For assay [10], the target named is cAMP-dependent protein kinase catalytic subunit beta (Homo sapiens) (UniProt P22694). Kind of assay: Selectivity interaction (KinomeScan (DiscoverX)) EUB0000735a PRKACB. The following applies: at 1 µM.
Assay [11] deals with cGMP-dependent protein kinase 1 (Homo sapiens) (UniProt Q13976). Kind of assay: Selectivity interaction (KinomeScan (DiscoverX)) EUB0000735a PRKG1. The following applies: at 1 µM.

Coagulation factor XI, sequence (P03951 19-387 limits assumed): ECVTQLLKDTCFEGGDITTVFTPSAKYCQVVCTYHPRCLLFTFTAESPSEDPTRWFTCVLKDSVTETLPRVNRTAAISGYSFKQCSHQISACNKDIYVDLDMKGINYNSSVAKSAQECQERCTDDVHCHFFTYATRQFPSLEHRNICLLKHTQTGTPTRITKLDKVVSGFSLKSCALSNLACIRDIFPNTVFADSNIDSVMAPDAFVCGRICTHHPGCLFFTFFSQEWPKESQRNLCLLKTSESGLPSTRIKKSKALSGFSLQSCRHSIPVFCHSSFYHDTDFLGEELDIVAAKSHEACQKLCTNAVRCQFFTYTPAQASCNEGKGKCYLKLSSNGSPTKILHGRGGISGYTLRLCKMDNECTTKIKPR
Coagulation factor XI, sequence (P03951 388-625 limits assumed): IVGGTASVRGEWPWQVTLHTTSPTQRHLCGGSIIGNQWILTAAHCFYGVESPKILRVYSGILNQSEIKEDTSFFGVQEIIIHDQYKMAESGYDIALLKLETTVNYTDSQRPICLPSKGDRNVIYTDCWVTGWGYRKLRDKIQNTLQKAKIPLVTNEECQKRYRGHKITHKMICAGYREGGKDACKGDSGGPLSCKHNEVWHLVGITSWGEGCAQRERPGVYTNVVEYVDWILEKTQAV
Plasma kallikrein, sequence (P03952 20-390 limits assumed): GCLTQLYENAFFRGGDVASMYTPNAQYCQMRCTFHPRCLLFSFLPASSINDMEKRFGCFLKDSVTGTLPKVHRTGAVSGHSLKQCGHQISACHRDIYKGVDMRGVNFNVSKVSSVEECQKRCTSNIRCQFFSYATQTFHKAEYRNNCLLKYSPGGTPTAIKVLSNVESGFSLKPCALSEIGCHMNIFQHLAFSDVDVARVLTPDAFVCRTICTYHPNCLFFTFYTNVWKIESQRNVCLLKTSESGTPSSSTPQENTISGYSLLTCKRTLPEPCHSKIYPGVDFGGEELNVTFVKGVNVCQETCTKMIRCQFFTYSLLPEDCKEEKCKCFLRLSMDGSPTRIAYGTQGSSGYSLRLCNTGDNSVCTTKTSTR
Plasma kallikrein, sequence (P03952 391-638 limits assumed): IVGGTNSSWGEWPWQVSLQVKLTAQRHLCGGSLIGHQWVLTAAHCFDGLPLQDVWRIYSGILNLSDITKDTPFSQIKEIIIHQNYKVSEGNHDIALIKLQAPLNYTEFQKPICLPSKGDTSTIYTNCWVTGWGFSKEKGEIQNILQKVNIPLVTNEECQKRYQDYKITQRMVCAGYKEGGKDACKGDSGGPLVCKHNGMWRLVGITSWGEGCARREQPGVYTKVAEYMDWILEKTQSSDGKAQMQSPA
Serine protease 1, sequence (P07477 whole entry): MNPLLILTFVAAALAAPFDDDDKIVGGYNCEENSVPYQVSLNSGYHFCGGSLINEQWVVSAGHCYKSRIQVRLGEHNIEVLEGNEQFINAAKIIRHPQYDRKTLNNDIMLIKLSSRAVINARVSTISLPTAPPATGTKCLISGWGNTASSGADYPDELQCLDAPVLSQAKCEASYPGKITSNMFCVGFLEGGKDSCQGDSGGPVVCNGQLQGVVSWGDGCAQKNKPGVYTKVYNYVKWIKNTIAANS
Stromelysin-1, sequence (P08254 whole entry): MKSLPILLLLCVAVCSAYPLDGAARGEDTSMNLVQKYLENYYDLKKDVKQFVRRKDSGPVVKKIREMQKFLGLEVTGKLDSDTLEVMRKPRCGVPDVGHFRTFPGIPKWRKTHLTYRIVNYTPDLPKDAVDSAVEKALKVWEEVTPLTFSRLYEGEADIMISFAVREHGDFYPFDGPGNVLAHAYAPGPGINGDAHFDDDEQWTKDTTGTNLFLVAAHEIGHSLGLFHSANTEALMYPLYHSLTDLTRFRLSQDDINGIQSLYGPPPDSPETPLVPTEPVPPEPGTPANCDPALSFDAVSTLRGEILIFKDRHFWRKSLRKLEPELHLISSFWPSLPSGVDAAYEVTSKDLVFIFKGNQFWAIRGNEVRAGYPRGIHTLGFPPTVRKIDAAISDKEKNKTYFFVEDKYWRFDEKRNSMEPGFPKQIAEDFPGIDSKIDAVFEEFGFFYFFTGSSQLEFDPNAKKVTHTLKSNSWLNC
Chymotrypsin-like elastase family member 1, sequence (Q9UNI1 whole entry): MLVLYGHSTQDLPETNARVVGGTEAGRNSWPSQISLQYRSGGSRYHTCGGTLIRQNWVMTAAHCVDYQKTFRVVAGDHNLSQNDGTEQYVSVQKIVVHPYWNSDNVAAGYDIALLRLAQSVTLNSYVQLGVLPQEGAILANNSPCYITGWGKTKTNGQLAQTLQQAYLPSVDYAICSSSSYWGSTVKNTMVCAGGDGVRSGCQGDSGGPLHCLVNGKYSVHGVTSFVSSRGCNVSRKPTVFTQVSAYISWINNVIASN
Kallikrein-12, sequence (Q9UKR0 whole entry): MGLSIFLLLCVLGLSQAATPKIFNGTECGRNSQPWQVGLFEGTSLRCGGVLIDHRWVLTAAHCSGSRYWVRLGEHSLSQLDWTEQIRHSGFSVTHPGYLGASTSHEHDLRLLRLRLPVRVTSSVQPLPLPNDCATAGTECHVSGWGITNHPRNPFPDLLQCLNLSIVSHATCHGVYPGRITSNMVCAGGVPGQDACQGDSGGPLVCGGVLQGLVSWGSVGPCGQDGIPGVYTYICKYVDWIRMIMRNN
Non-receptor tyrosine-protein kinase TYK2, sequence (P29597 whole entry): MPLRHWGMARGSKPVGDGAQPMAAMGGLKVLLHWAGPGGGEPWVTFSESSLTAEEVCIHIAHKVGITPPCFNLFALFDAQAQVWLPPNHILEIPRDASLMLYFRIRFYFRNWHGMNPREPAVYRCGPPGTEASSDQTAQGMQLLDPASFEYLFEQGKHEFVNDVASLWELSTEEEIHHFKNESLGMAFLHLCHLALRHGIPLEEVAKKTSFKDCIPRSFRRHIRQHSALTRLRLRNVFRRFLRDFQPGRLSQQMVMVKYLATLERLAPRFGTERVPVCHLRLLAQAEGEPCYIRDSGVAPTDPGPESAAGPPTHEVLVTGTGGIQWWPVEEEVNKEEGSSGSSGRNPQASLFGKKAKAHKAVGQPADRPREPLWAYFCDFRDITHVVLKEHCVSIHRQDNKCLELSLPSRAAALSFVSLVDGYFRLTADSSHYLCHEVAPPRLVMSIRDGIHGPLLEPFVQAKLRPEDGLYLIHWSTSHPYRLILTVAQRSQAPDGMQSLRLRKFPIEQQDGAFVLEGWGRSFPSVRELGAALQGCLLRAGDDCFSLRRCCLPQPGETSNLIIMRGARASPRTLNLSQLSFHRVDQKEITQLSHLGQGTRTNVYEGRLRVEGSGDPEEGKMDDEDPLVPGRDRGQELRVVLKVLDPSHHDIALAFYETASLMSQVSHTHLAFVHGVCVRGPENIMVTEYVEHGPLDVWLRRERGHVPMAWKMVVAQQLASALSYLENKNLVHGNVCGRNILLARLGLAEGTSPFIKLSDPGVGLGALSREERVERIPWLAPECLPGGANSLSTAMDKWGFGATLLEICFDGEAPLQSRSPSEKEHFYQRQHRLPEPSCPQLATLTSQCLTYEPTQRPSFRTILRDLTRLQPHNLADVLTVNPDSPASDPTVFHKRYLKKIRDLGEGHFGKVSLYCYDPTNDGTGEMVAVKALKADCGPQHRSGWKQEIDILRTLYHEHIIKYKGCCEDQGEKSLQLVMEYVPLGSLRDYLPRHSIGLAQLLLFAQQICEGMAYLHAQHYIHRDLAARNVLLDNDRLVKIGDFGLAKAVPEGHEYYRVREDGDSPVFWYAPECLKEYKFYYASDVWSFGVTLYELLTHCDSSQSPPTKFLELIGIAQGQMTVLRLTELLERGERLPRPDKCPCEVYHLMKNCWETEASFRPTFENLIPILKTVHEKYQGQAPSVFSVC
Stromelysin-2, sequence (P09238 whole entry): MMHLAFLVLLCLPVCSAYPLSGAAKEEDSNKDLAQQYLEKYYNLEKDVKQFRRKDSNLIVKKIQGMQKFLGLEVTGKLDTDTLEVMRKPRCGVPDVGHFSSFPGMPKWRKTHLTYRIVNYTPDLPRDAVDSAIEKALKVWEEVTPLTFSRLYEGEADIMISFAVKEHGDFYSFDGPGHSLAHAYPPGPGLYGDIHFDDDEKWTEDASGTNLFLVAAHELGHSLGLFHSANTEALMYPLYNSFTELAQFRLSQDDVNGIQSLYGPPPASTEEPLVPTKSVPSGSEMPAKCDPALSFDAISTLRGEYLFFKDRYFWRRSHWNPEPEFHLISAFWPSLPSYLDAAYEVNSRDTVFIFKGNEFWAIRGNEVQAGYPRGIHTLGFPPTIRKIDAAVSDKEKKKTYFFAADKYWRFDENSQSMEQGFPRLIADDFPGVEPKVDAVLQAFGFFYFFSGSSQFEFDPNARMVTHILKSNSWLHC
Chymotrypsin-C, sequence (Q99895 whole entry): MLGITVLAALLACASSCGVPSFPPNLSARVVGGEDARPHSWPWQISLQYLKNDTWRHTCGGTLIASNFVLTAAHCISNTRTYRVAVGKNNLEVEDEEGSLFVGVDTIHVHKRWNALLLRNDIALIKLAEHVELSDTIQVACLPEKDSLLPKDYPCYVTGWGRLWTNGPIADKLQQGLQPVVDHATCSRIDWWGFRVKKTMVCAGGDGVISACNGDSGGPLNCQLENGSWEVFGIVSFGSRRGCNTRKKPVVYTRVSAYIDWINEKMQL
Kallikrein-1, sequence (P06870 whole entry): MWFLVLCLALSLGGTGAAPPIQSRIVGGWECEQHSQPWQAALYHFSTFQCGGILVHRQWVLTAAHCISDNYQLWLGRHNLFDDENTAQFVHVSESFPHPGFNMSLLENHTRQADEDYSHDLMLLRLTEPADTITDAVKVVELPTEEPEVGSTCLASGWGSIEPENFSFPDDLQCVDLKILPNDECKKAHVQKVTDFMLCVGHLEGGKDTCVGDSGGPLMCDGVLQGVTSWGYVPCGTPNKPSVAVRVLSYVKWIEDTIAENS
Chymase, sequence (P23946 whole entry): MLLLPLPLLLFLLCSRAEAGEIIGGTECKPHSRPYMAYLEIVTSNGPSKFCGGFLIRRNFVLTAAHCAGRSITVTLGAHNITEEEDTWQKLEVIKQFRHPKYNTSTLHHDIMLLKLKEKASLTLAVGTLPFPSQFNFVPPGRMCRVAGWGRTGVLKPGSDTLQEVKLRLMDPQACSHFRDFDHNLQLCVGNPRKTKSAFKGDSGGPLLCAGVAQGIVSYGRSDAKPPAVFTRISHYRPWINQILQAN

With `O=C(O)[C@H]1[C@H](Cn2nnc3ccccc3c2=O)CC[C@@H]1C(=O)c1ccc(OCCC2CCOCC2)cc1` [BAY-7598], the % of inhibition at D(2) dopamine receptor amounted to 30%. Further, the % of control in [1] came to 46%; in assay [6], 40%; in [7], 41%. Also, the half-maximal inhibitory concentration (IC50) worked out at 67 nM on Collagenase 3; 13 nM at Stromelysin-2; 250 nM in assay [2]; 940 nM in [3]; 44 nM in [4]; 360 nM against Stromelysin-1. Besides, the half-inhibitory concentration (IC50) against Matrilysin was 600 nM; on Neutrophil collagenase, 15 nM; in assay [5], 460 nM.

Regarding `CCNC(=O)c1cc2c(N3CCOC[C@@H]3C)ccnc2[nH]1`, the affinity in [8] corresponds to a Ki of 1530 nM.

`CC(=O)C1=C(C)N(c2cccc(C(F)(F)F)c2)C(=O)N[C@@H]1c1ccc(C#N)nc1` [BAY-678]: the IC50 (in assay [9]; at Chymase; against Chymotrypsin-C; at Cathepsin G; at Coagulation factor XI; on Coagulation factor VII) was above 30000 nM throughout. Also, the IC50 on Coagulation factor IX, on Kallikrein-1, against Kallikrein-12, against Kallikrein-4, at Kallikrein-5 and against Kallikrein-7 was above 30000 nM in each case. Further, the concentration for half-maximal inhibition (IC50) against Plasma kallikrein, against Plasminogen, against Serine protease 1, on Dipeptidyl peptidase 2, against Dipeptidyl peptidase 4 and against Prolyl endopeptidase FAP was above 30000 nM throughout. Moreover, the % of control in assay [10] was found to be 48.7%; in [11] it was 45.5%.

In general, IC50 refers to the concentration needed to halve the response being measured. A word on the Ki: it is a dissociation constant, usually derived from enzyme kinetics or from competition with a known ligand. Higher therefore signals a looser hold on the target.
